Measured values published in publication PMC9317316, “Synthesis and Evaluation of Some New 4H-Pyran Derivatives as Antioxidant, Antibacterial and Anti-HCT-116 Cells of CRC, with Molecular Docking, Antiproliferative, Apoptotic and ADME Investigations” (Pharmaceuticals, 2022).
Values joined by “and” are separate entries in the source; they are usually repeats but may differ in a detail not shown here. Equal entries are not always repeated. Where two headings read alike, the source gives them in different places.

Key:
[1] = DPPH radical scavenging assay; details: for IC50: 0.03 to 1 mg/mL, 1 h, mean ± SD, triplicate, read-out: IC50 (mM) for DPPH Scavenging Potency
Procedure: The IC50 values for DPPH were calculated from the plot of the scavenging effect against the compound concentration.
The compounds’ capacities to scavenge the stable radical 1,1 diphenyl-2-picrylhydrazyl (DPPH) formed in solution by donation of a hydrogen atom or an electron was investigated according to the method described by Bersuder and coworkers. Due to the fact that the initial blue/purple solution of diphenyl picrylhydrazine changes to yellow in the presence of compounds with a capacity to scavenge DPPH free radicals, this reaction is used as a measure of a compound’s ability to scavenge any free radical. Briefly, a 0.5 mL volume of DPPH ethanolic solution was mixed with an equal volume of each sample concentration (0.03 to 1 mg/mL), shaken strongly and incubated at room temperature for 1 h in darkness. The absorbance of the residual DPPH radicals was measured at 519 nm and compared to that of the control (without the tested compound). DPPH radical scavenging was calculated using the following formula: Scavenging effect (%) = (1 − Acompound/AControl) × 100, where Acompound and Acontrol are the absorbances of the tested compound and of the control, respectively. A plot of the scavenging effect (%) versus the sample concentration was also performed to determine the compound concentration providing 50% inhibition (IC50).

HCT-116 cells = assay: Cell viability (cytotoxicity, LDH release) assay; format: cell-based; details: Homo sapiens, 100 µg/mL, 24 h, read-out: percent of viable cells
Procedure: The synthesized compounds were also examined at four concentrations (10, 25, 50 and 100 µg/mL) for their cytotoxic effects on human colorectal cancer HCT-116 cells after their incubation together for 24 h.
Cytotoxic potency was examined for a human colon cancer cell line HCT-116 (American Type Culture Collection; Manassas, VA, USA) using various amounts of each compound (10, 25, 50 and 100 µg). Samples were diluted in Dulbecco’s Modified Eagle’s Medium, consisting of 10% Fetal Bovine Serum, and added to cells grown and cultured for 24 h in a 5% CO2-humidified incubator at 37 °C. Then, the activity of lactate dehydrogenase released from damaged cells was determined in the collected supernatant aliquots using an ELISA endpoint assay (Benchmark Plus, Bio-Rad, Hercules, CA, USA). As positive and negative controls, respectively, 0.1% Triton X-100 in the assay medium and the assay medium only were used. Cell viability, shown as mean values ± SDs (n = 3), was expressed as a relative percentage of the OD values determined at 600 nm in compound-treated cells and the control.

[2] = tested on: P. aeruginosa (ATCC 27853); assay: Antibacterial viability (CFU) assay, IC50; format: cell-based; details: Pseudomonas aeruginosa, ATCC27853
Procedure: (§1) The results for the in vitro antibacterial properties of the synthesized compounds against five Gram-positive and four Gram-negative human-pathogenic strains, which were assessed by both the agar diffusion method (based on inhibition zone (IZ)) and the broth dilution bioassay (for the determination of the half-maximal inhibitory concentration (IC50) values), using ampicillin as the reference antibiotic drug, are shown in Table 2 and Table 3.
(§2) The antibacterial activity of all synthesized compounds was evaluated against the Gram-negative strains E. coli (ATCC 25966), K. pneumonia (ATCC 700603), P. aeruginosa (ATCC 27853) and S. enteric (ATCC 43972) and against the Gram-positive strains B. cereus (ATCC 14579), B. subtilis (ATCC 6633), E. faecalis (ATCC 29122), S. aureus (ATCC 25923) and S. epidermidis (ATCC 14990), using the agar diffusion method through measuring the appearance of the inhibition zone on the surface of the top agar, as reported by Berghe and Vlietinck. Ampicillin (10 µg/well) was used as the positive reference standard. Bacterial viability was also investigated by determining the colony-forming ability (CFU) of bacteria incubated at different time intervals without or with appropriate amounts of the compound, which were mixed with 2 ×10^7 CFU/mL in sterile BHI and incubated under shaking for 60 min at 37 °C. Samples were serially diluted into sterile BHI, streaked onto media agar plates and incubated for 24 h at 37 °C. The antibacterial potency of the tested compounds was expressed as the residual number of CFUs with reference to the initial inoculums. The results presented as the half-maximal (50 %) inhibitory concentration (IC50) values are the means of three different measurements.

E. faecalis (ATCC 29122) [3] = assay: Antibacterial viability (CFU) assay, IC50; format: cell-based; details: Enterococcus faecalis, ATCC29122
Procedure: as §1, §2

S. enteric (ATCC 43972) [4] = assay: Antibacterial viability (CFU) assay, IC50; format: cell-based
Procedure: as §1, §2

[5] = tested on: K. pneumonia (ATCC 700603); assay: Antibacterial viability (CFU) assay, IC50; format: cell-based; details: Klebsiella pneumoniae, ATCC700603
Procedure: as §1, §2

E. coli (ATCC 25966) [6] = assay: Antibacterial viability (CFU) assay, IC50; format: cell-based; details: Escherichia coli, ATCC25966; E. coil (ATCC 25966)
Procedure: as §1, §2

[7] = tested on: S. epidermidis (ATCC 14990); assay: Antibacterial viability (CFU) assay, IC50; format: cell-based; details: Staphylococcus epidermidis, ATCC14990
Procedure: as §1, §2

B. cereus (ATCC 14579) [8] = assay: Antibacterial viability (CFU) assay, IC50; format: cell-based; details: Bacillus cereus, ATCC14579
Procedure: as §1, §2

S. aureus (ATCC 25923) [9] = assay: Antibacterial viability (CFU) assay, IC50; format: cell-based; details: Staphylococcus aureus, ATCC25923
Procedure: as §1, §2

B. subtilis (ATCC 6633) [10] = assay: Antibacterial viability (CFU) assay, IC50; format: cell-based
Procedure: as §1, §2

[11] = tested on: P. aeruginosa (ATCC 27853); assay: Antibacterial agar diffusion method (inhibition zone); format: cell-based
Procedure: as §1, §2

E. faecalis (ATCC 29122) [12] = assay: as above; format: cell-based
Procedure: as §1, §2

[13] = tested on: K. pneumonia (ATCC 700603); assay: as above; format: cell-based
Procedure: as §1, §2

E. coli (ATCC 25966) [14] = assay: as above; format: cell-based; details: E. coil (ATCC 25966)
Procedure: as §1, §2

[15] = tested on: S. epidermidis (ATCC 14990); assay: as above; format: cell-based
Procedure: as §1, §2

B. cereus (ATCC 14579) [16] = assay: as above; format: cell-based
Procedure: as §1, §2

S. aureus (ATCC 25923) [17] = assay: as above; format: cell-based
Procedure: as §1, §2

B. subtilis (ATCC 6633) [18] = assay: as above; format: cell-based
Procedure: as §1, §2

[19] = Reducing power assay (FRAC, Fe3+ to Fe2+); details: 0-1 mg/mL, absorbance 700 nm
Procedure: Secondly, FRAC was determined over the concentration range of 0.0−1 mg/mL via monitoring Fe^3+−Fe^2+ transformation in the presence of the studied compounds and the reference antioxidant BHT to estimate the values of efficient concentration (EC50), expressed in mM.
The reducing power of the studied compounds was assessed according to Oyaizu’s method. Briefly, different concentrations (ranging from 0 to 1 mg/mL) of each tested compound were first mixed with 1 mL of 0.2 M sodium phosphate buffer (pH 6.6) and 1 mL of 1% potassium ferricyanide (K3Fe(CN)6) and incubated at 50 °C for 20 min. After the addition of 1.25 mL of 20% trichloroacetic acid (TCA), the mixture was centrifuged for 10 min at 3000 rpm and the upper layer solution was then mixed with 0.5 mL of 0.1% fresh ferric chloride and an equal volume of deionized water. Finally, the absorption of the resulting mixture was measured at 700 nm using a UV spectrophotometer against distilled water as the blank, while butylated hydroxytoluene (BHT) was used as a positive control. The sample ferric reducing power capability was indicated by increased absorbance.

S. enteric (ATCC 43972) [20] = assay: Antibacterial agar diffusion method (inhibition zone); format: cell-based
Procedure: as §1, §2

[21] = Bacillus subtilis, ATCC6633, B. subtilis (ATCC 6633)

| Compound | IC50 [1] | DPPH Radical Scavenging Effenciency (%) at 1 mg/mL [1] | IC50 [2] | IC50 (E. faecalis (ATCC 29122) [3]) | IC50 (S. enteric (ATCC 43972) [4]; read-out: IC50) | IC50 [5] | IC50 (E. coli (ATCC 25966) [6]) | IC50 [7] | IC50 (B. cereus (ATCC 14579) [8]) | IC50 (S. aureus (ATCC 25923) [9]) | IC50 (B. subtilis (ATCC 6633) [10]; [21]) | IZ (mm) [11] | IZ (mm) (E. faecalis (ATCC 29122) [12]) | IZ (mm) [13] | IZ (mm) (E. coli (ATCC 25966) [14]) | IZ (mm) [15] | IZ (mm) (B. cereus (ATCC 14579) [16]) | IZ (mm) (S. aureus (ATCC 25923) [17]) | IZ (mm) (B. subtilis (ATCC 6633) [18]) | EC50 [19] | other results |
| --- | --- | --- | --- | --- | --- | --- | --- | --- | --- | --- | --- | --- | --- | --- | --- | --- | --- | --- | --- | --- | --- |
| COc1ccc(C2C(C#N)=C(N)OC(C)=C2C(=O)OCc2ccccc2)cc1 (centres unmarked) [4j, 6-Amino-5-cyano-4-(4-methoxy-phenyl)-2-methyl-4H-pyran-3-carboxylic acid benzyl ester] | 0.194 mM | 88.00% and 88.00 ± 1.41% | 49.7 ± 4.78 µM | 28.2 ± 1.51 µM | 51.8 ± 2.92 µM | 48.4 ± 3.99 µM | 57.1 ± 0.8 µM | 33.3 ± 1.7 µM | 27.6 ± 1.51 µM | 33.3 ± 1.7 µM | 23.6 to 36.8 µM | 14.5 ± 0.7 mm | 23.20 mm and 23.20 ± 0.57 mm | 12.0 ± 1.4 mm | 10.5 ± 0.71 mm | 26.65 mm and 26.65 ± 0.92 mm | 24.50 mm and 24.50 ± 0.71 mm | 25.25 mm and 25.25 ± 1.06 mm | 21.50 mm and 21.50 ± 0.71 mm | 74 ± 4 µM | melting point: 170 to 172 °C; viability at 100 µg/mL (HCT-116 cells): 94%; IC50 (S. enteric (ATCC 43972) [4]): 49.7 µM; IC50 (B. subtilis (ATCC 6633) [10]; B. subtilis (ATCC 6633)): 23.6 ± 0.37 µM |
| CC1(C)S[C@@H]2[C@H](NC(=O)[C@H](N)c3ccccc3)C(=O)N2[C@H]1C(=O)O [Ampicillin, reference compound] |  |  | 41.5 ± 1.72 µM | 36.5 ± 3.03 µM | 14.9 ± 0.34 µM | 32.9 ± 2.29 µM | 58 ± 4.87 µM | 50.1 ± 3.43 µM | 25.8 ± 0.57 µM | 38.6 ± 2 µM | 37.2 ± 1.43 µM | 21.5 ± 0.7 mm | 24.50 ± 0.71 mm | 21.0 ± 1.4 mm | 23.5 ± 0.71 mm | 22.50 ± 0.71 mm | 23.50 ± 0.71 mm | 21.50 ± 0.71 mm | 25.50 ± 0.71 mm |  | IZ (mm) (E. faecalis (ATCC 29122) [12]; listed as ampicillin): 24.50 mm; IZ (mm) (S. enteric (ATCC 43972) [20]): 19.5 ± 0.7 mm; IZ (mm) ([15]; listed as ampicillin): 22.50 mm; IZ (mm) (B. cereus (ATCC 14579) [16]; listed as ampicillin): 23.50 mm; IZ (mm) (S. aureus (ATCC 25923) [17]; listed as ampicillin): 21.50 mm; IZ (mm) (B. subtilis (ATCC 6633) [18]; listed as ampicillin): 25.50 mm |
| Cc1cc(C(C)(C)C)c(O)c(C(C)(C)C)c1 [BHT, butylated hydroxytoluene, reference compound] | 0.245 ± 0.027 mM | 95.30% and 95.30 ± 0.42% |  |  |  |  |  |  |  |  |  |  |  |  |  |  |  |  |  | 89 ± 3 µM |  |
